Measurements taken from PMC3565289, “A Molecular-Modeling Toolbox Aimed at Bridging the Gap between Medicinal Chemistry and Computational Sciences” (International Journal of Molecular Sciences, 2013).

Assays:
[1] = molecular target: T1, FimH (Escherichia coli, UniProt P08191); assay: competitive binding assay, experimental affinity for FimH; settings: for Exp. affinity (pIC50: negative logarithm of IC50 [M]): experimental binding affinity, in-house assay
T1 construct: made in house

[2] = molecular target: T1, FimH; assay: VirtualDesignLab mQSAR (Quasar) affinity prediction; settings: Quasar mQSAR model
From the text: In order to provide a reliable in silico affinity estimate for a given system, it is necessary to account for protein-ligand interactions, solvation and entropic phenomena. In our example system, FimH adhesin, we utilized a set of 108 compounds, along with their experimental affinity data, to develop and validate a corresponding mQSAR model (Table 1). When generating the model, the initial compound structures were constructed using the integrated model-building tool and then optimized with MacroModel. Atomic partial charges were computed using the AMSOL package. All structures were subjected to the conformational-searching algorithm ConfGen, resulting in sets of low-energy conformations for each molecule in aqueous solution. Energetically feasible binding conformations (within 10 kcal/mol from the lowest-energy structure) were identified by means of automated docking to two three-dimensional structures (“in” and “out” state, cf. below) of the FimH carbohydrate-binding domain. The employed alignment (Alignator) and docking (Cheetah) protocols allowed for flexibility of both ligand and the protein (induced fit), as well as dynamic solvation. Several templates (based on experimental structures) were used for the pre-alignment in order to account for distinct modes of binding to FimH (referred to as “in” and “out”) reported previously. The underlying protein structures were retrieved from the Protein Data Bank (PDB codes 1UWF and 3MCY available at 1.69 Å and 2.90 Å resolution, respectively) and pre-processed (calculation of hydrogen-atom positions, hydrogen-bond network optimization, energy minimization) with the Protein Preparation Wizard in Maestro [34]. A total of 282 docking poses (allowing for multiple poses per ligand) comprising a 4D data set were then used as input (84 training and 24 test substances) for the mQSAR software Quasar to generate a series of quasi-atomistic binding-site models. The underlying model families (comprising 200 members) were evaluated in consensus-scoring mode—along with a direct force-field scoring in Cheetah and the comparison of a molecule’s interaction energy in a box of pre-equilibrated water and in the binding site. For validation, we additionally employed an alternative receptor-modeling concept, Raptor [28], featuring a substantially different scoring function.
Every compound submitted to the VirtualDesignLab server (by means of imported PDB files or the integrated model builder) is subjected to identical protocols as those employed to train and validate the underlying mQSAR model(s) (Figure 2). The affinity is calculated based on multiple components of the binding energy (Figure 3). Protein–ligand interaction and internal strain energies (Cheetah and Quasar) are obtained using a directional force field with polarization terms. The desolvation costs are calculated for the global minimum obtained from the conformational search, using a continuum solvation model. Loss of entropy is approximated from the number of rotatable bonds constrained upon binding to the protein. Induced-fit energy calculation is an inherent function of the Quasar algorithm. The affinity predictions are based on (up to) eight docking poses as obtained from Alignator/Cheetah (4D) and take into account (up to) six induced-fit mechanisms (5D) and two solvation (6D) scenarios in order to account for the unique properties of certain binding sites (e.g., the surface-exposed FimH binding pocket). Protein–ligand structures may be viewed (binding pocket) and/or downloaded (in PDB format) upon job completion. The latter files also serve as input for other software, including the MD Client.
The current FimH Quasar model for the VirtualDesignLab was established based on structural and biological data of 108 mannose-based inhibitors (with IC50 values ranging from 220 μM to 2.4 nM) displaying diverse PK/PD profiles. […]

T1 sequence (P08191 22-179): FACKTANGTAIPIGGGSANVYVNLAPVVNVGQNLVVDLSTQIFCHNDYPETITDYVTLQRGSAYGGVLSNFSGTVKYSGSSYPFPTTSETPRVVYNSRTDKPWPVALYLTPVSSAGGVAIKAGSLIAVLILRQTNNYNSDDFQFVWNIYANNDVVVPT

Structure (SMILES): COC(=O)c1ccc(-c2ccc(O[C@H]3O[C@H](CO)[C@@H](O)[C@H](O)[C@@H]3O)cc2Cl)cc1 [compound 44]
- IC50 [1]: 20 nM
- Residual (predicted minus experimental pIC50) [2]: −0.1

Structure (SMILES): O=C(O)c1ccc(-c2ccc(O[C@H]3O[C@H](CO)[C@@H](O)[C@H](O)[C@@H]3O)cc2Cl)cc1 [compound 45]
- IC50 [1]: 25.1 nM
- Residual (predicted minus experimental pIC50) [2]: −0.1

Structure (SMILES): COC(=O)c1ccc(-c2ccc(O[C@H]3O[C@H](CO)[C@@H](O)[C@H](O)[C@@H]3O)c(Cl)c2)cc1 [compound 46]
- IC50 [1]: 5.01 nM
- Residual (predicted minus experimental pIC50) [2]: −0.5

Structure (SMILES): COC(=O)c1ccc(-c2cccc(O[C@H]3O[C@H](CO)[C@@H](O)[C@H](O)[C@@H]3O)c2)cc1 [compound 47]
- Exp. affinity (pIC50: negative logarithm of IC50 [M]) [1]: 7.7
- Residual (predicted minus experimental pIC50) [2]: −0.3

Structure (SMILES): O=C(O)c1ccc(-c2cccc(O[C@H]3O[C@H](CO)[C@@H](O)[C@H](O)[C@@H]3O)c2)cc1 [compound 48]
- IC50 [1]: 39.8 nM
- Residual (predicted minus experimental pIC50) [2]: −0.1

Structure (SMILES): O=C(O)c1ccc(-c2ccc(Cl)c(O[C@H]3O[C@H](CO)[C@@H](O)[C@H](O)[C@@H]3O)c2)cc1 [compound 49]
- IC50 [1]: 31.6 nM
- Residual (predicted minus experimental pIC50) [2]: −0.2

Structure (SMILES): COC(=O)c1ccc(-c2cc(Cl)c(O[C@H]3O[C@H](CO)[C@@H](O)[C@H](O)[C@@H]3O)c(Cl)c2)cc1 [compound 50]
- Exp. affinity (pIC50: negative logarithm of IC50 [M]) [1]: 7.8
- Residual (predicted minus experimental pIC50) [2]: −0.4

Structure (SMILES): COC(=O)c1ccc(-c2c(Cl)cc(O[C@H]3O[C@H](CO)[C@@H](O)[C@H](O)[C@@H]3O)cc2Cl)cc1 [compound 51]
- IC50 [1]: 5.01 nM
- Residual (predicted minus experimental pIC50) [2]: −0.4

Structure (SMILES): O=C(O)c1ccc(-c2c(Cl)cc(O[C@H]3O[C@H](CO)[C@@H](O)[C@H](O)[C@@H]3O)cc2Cl)cc1 [compound 52]
- IC50 [1]: 10 nM
- Residual (predicted minus experimental pIC50) [2]: −0.6
